What was measured:
[1] = LC-MS analysis of the TGA samples for thermal isomerization to isomidazolam; type: physicochemical; settings: LC-MS of sample after TGA at 200° C. for 50 minutes
[2] = for weight remaining of starting sample (TGA): heated at 200° C. for 50 minutes
Procedure: To test the stable ion-pair hypothesis, TGA of PTSA, midazolam, and their combined salt pair were heated at 200° C. for 50 minutes and their decomposition rates were compared (FIG. 13).

[3] = pH titration of the carboxylate with mother liquor analysis (solubility versus pH); type: physicochemical; settings: pH values below 1, methanol/KOH saponification mixture titrated with acid
Procedure: Saponification of midazolam ethyl ester to the carboxylic acid was performed both in batch and flow, but poor solubility limited the throughput of a continuous manufacturing approach. Therefore, the reaction was run as a batch in a methanol/KOH solution. Much of the R&D on this process step revolved around the reactive crystallization of the carboxylic acid product. […] An initial screen was performed by titrating a batch of the carboxylate and analyzing the mother liquor at decreasing pH values to determine the pH value with the highest yield (FIG. 10).
The titration experiment determined that pH 5.5-6.0 would provide the highest yielding crystallization. At pH values lower than this, the solubility of the product increases again until it is fully soluble at pH values below 1. […] This was an attractive development as the ring open form had been previously reported to provide a purer decarboxylation. The ring quickly closes in neutral solvent, and the diastereomeric methylene resonances appear clearly between 4-6 ppm. […] To test this hypothesis, we performed […] batch reactions and crystallization at pH 1, and 5.5. The solid products were characterized by thermogravimetric analysis and ^1H NMR spectroscopy (FIGS. 11A and 11B).

Molecule | isomidazolam formed in TGA sample [1] [% LCAP] | weight remaining of starting sample (TGA) [2] [weight %] | solubility of the product [3] | weight remaining (TGA) ([2]; heated at 200° C., within 40 minutes of heating) [weight %]
8-chloro-6-(2-fluorophenyl)-1-methyl-4H-imidazo[1,5-a][1,4]benzodiazopine [Midazolam, reference compound] | 12 | 65 | – | –
Cc1nc(C(=O)O)c2n1-c1ccc(Cl)cc1C(c1ccccc1F)=NC2 [Midazolam carboxylic acid, 8-chloro-6-(2-fluorophenyl)-1-methyl-4H-imidazo[1,5-a][1,4]benzodiazopine-3-carboxylic acid] | – | – | fully soluble | –
Cc1ccc(S(=O)(=O)O)cc1 [PTSA, para-toluenesulfonic acid] | – | – | – | ~10
Cc1ccc(S(=O)(=O)O)cc1.Cc1ncc2n1-c1ccc(Cl)cc1C(c1ccccc1F)=NC2 [midazolam:PTSA pair] | 1 | 90 | – | –

From patent US20240109848A1, “PROCESS FOR THE PREPARATION OF IMIDAZOBENZODIAZEPINES” (ODH IP Corp., priority 2022, published 2024)
